# In US20260256792A1, “TREATMENT OF CHRONIC SPONTANEOUS URTICARIA BY ADMINISTERING (R)-2-[3-[4-AMINO-3-(2-FLUORO-4-PHENOXY-PHENYL)PYRAZOLO[3,4-D]PYRIMIDIN-1-YL]PIPERIDINE-1-CARBONYL]-4-METHYL-4-[4-(OXETAN-3-YL)PIPERAZIN-1-YL]PENT-2-ENENITRILE” (priority 2023, published 2026):
# Tested on: angioedema in CSU patients
# Assay: Phase 2 CSU study: angioedema activity score over 7 days (AAS7)
# Format: in vivo, human
# Conditions: 400 mg TID; for AAS7 % Change difference for rilzabrutinib vs. placebo LS Mean (95% CI) / AAS7 % Change from baseline LS Mean (SE) / AAS7 = 0, Non-responder n (%) / AAS7 = 0, OR (95% CI) for rilzabrutinib vs. placebo / AAS7 = 0, RRD (%) for rilzabrutinib vs. placebo (95% CI) / AAS7 Post-baseline Mean (SD) / Participants with AAS7 = 0, Responder n (%) / AAS7 Change difference for rilzabrutinib vs. placebo LS Mean (95% CI) / AAS7 Change from baseline LS Mean (SE): angioedema at baseline; for Non-responder n (%), AAS7 = 0 / OR (95% CI) for rilzabrutinib vs. placebo, AAS7 = 0 / RRD (%) for rilzabrutinib vs. placebo (95% CI), AAS7 = 0 / Responder n (%), AAS7 = 0: outlier removed
# Source text: The study comprises a 12 week, randomized, double-blind, placebo-controlled, multi-center, dose-ranging efficacy and safety phase, followed by a 40 week open label extension (OLE) phase (see FIG. 1). The study consists of three phases and an optional OLE phase. […] The weekly angioedema activity score (AAS7) was proposed as a tertiary endpoint. […] Patients were to complete the AAS using the e-diary. The e-diary was to be used once daily on the same time of each day recording of participant's answers to the angioedema activity score over 7 days (AAS7) questionnaire.
compound,measurement,setting,value
"CC(C)(C=C(C#N)C(=O)N1CCC[C@@H](n2nc(-c3ccc(Oc4ccccc4)cc3F)c3c(N)ncnc32)C1)N1CCN(C2COC2)CC1 [rilzabrutinib, (R)-2-[3-[4-amino-3-(2-fluoro-4-phenoxy-phenyl)pyrazolo[3,4-d]pyrimidin-1-yl]piperidine-1-carbonyl]-4-methyl-4-[4-(oxetan-3-yl)piperazin-1-yl]pent-2-enenitrile]",AAS7 % Change difference for rilzabrutinib vs. placebo LS Mean (95% CI),"Week 4, omalizumab-naïve","−49.61 (−90.06, −9.16) %"
same,AAS7 % Change from baseline LS Mean (SE),"Week 4, omalizumab-naïve",−79.54 (14.89) %
same,"AAS7 = 0, Non-responder n (%)","Week 4, omalizumab-naïve",14 (60.9) n (%)
same,"AAS7 = 0, OR (95% CI) for rilzabrutinib vs. placebo","Week 4, omalizumab-naïve",1.519
same,"AAS7 = 0, RRD (%) for rilzabrutinib vs. placebo (95% CI)","Week 4, omalizumab-naïve",7.3 %
same,AAS7 Post-baseline Mean (SD),"Week 4, omalizumab-naïve",11.73 (16.82)
same,"Participants with AAS7 = 0, Responder n (%)","Week 4, omalizumab-naïve",9 (39.1) n (%)
same,AAS7 % Change from baseline LS Mean (SE),"Week 5, ITT",−69.87 (9.90) %
same,AAS7 Change difference for rilzabrutinib vs. placebo LS Mean (95% CI),"Week 5, ITT","−9.32 (−20.56, 1.93)"
same,AAS7 Change from baseline LS Mean (SE),"Week 5, ITT",−38.91 (4.22)
same,"Non-responder n (%), AAS7 = 0","Week 5, omalizumab-naïve",14 (41.2) n (%)
same,"OR (95% CI) for rilzabrutinib vs. placebo, AAS7 = 0","Week 5, omalizumab-naïve",1.359
same,"RRD (%) for rilzabrutinib vs. placebo (95% CI), AAS7 = 0","Week 5, omalizumab-naïve",7.5 %
same,"Responder n (%), AAS7 = 0","Week 5, omalizumab-naïve",20 (58.8) n (%)
same,AAS7 % Change difference for rilzabrutinib vs. placebo LS Mean (95% CI),"Week 5, omalizumab-naïve","−17.62 (−46.15, 10.90) %"
same,"AAS7 = 0, Non-responder n (%)","Week 5, omalizumab-naïve",13 (56.5) n (%)
same,"AAS7 = 0, OR (95% CI) for rilzabrutinib vs. placebo","Week 5, omalizumab-naïve",1.550
same,"AAS7 = 0, RRD (%) for rilzabrutinib vs. placebo (95% CI)","Week 5, omalizumab-naïve",9.8 %
same,AAS7 Post-baseline Mean (SD),"Week 5, omalizumab-naïve",10.83 (15.39)
same,"Participants with AAS7 = 0, Responder n (%)","Week 5, omalizumab-naïve",10 (43.5) n (%)
same,AAS7 Change difference for rilzabrutinib vs. placebo LS Mean (95% CI),"Week 6, ITT","−11.42 (−23.52, 0.68)"
same,AAS7 Change from baseline LS Mean (SE),"Week 6, ITT",−38.03 (4.48)
same,AAS7 Post-baseline Mean (SD),"Week 6, ITT",12.73 (19.47)
same,"Non-responder n (%), AAS7 = 0","Week 6, omalizumab-naïve",14 (41.2) n (%)
same,"OR (95% CI) for rilzabrutinib vs. placebo, AAS7 = 0","Week 6, omalizumab-naïve",1.334
same,"RRD (%) for rilzabrutinib vs. placebo (95% CI), AAS7 = 0","Week 6, omalizumab-naïve",6.5 %
same,"Responder n (%), AAS7 = 0","Week 6, omalizumab-naïve",20 (58.8) n (%)
same,AAS7 % Change difference for rilzabrutinib vs. placebo LS Mean (95% CI),"Week 6, omalizumab-naïve","−15.46 (−46.06, 15.15) %"
same,"AAS7 = 0, Non-responder n (%)","Week 6, omalizumab-naïve",12 (52.2) n (%)
same,"AAS7 = 0, OR (95% CI) for rilzabrutinib vs. placebo","Week 6, omalizumab-naïve",1.874
same,"AAS7 = 0, RRD (%) for rilzabrutinib vs. placebo (95% CI)","Week 6, omalizumab-naïve",13.5 %
same,AAS7 Post-baseline Mean (SD),"Week 6, omalizumab-naïve",13.55 (20.58)
same,"Participants with AAS7 = 0, Responder n (%)","Week 6, omalizumab-naïve",11 (47.8) n (%)
same,AAS7 % Change difference for rilzabrutinib vs. placebo LS Mean (95% CI),"Week 7, ITT","−22.57 (−53.40, 8.26) %"
same,AAS7 % Change from baseline LS Mean (SE),"Week 7, ITT",−68.52 (11.69) %
same,AAS7 Change difference for rilzabrutinib vs. placebo LS Mean (95% CI),"Week 7, ITT","−9.86 (−21.60, 1.88)"
same,AAS7 Change from baseline LS Mean (SE),"Week 7, ITT",−37.16 (4.45)
same,AAS7 Post-baseline Mean (SD),"Week 7, ITT",12.07 (15.62)
same,"Non-responder n (%), AAS7 = 0","Week 7, omalizumab-naïve",15 (44.1) n (%)
same,"OR (95% CI) for rilzabrutinib vs. placebo, AAS7 = 0","Week 7, omalizumab-naïve",1.277
same,"RRD (%) for rilzabrutinib vs. placebo (95% CI), AAS7 = 0","Week 7, omalizumab-naïve",6.5 %
same,"Responder n (%), AAS7 = 0","Week 7, omalizumab-naïve",19 (55.9) n (%)
same,AAS7 % Change difference for rilzabrutinib vs. placebo LS Mean (95% CI),"Week 7, omalizumab-naïve","−20.11 (−53.85, 13.63) %"
same,AAS7 % Change from baseline LS Mean (SE),"Week 7, omalizumab-naïve",−67.11 (12.58) %
same,"AAS7 = 0, Non-responder n (%)","Week 7, omalizumab-naïve",13 (56.5) n (%)
same,"AAS7 = 0, OR (95% CI) for rilzabrutinib vs. placebo","Week 7, omalizumab-naïve",1.351
same,"AAS7 = 0, RRD (%) for rilzabrutinib vs. placebo (95% CI)","Week 7, omalizumab-naïve",7.2 %
same,AAS7 Post-baseline Mean (SD),"Week 7, omalizumab-naïve",12.43 (15.87)
same,"Participants with AAS7 = 0, Responder n (%)","Week 7, omalizumab-naïve",10 (43.5) n (%)
same,AAS7 % Change difference for rilzabrutinib vs. placebo LS Mean (95% CI),"Week 8, ITT","−22.25 (−53.63, 9.12) %"
same,AAS7 % Change from baseline LS Mean (SE),"Week 8, ITT",−74.30 (11.67) %
same,AAS7 Change difference for rilzabrutinib vs. placebo LS Mean (95% CI),"Week 8, ITT","−11.02 (−22.54, 0.50)"
same,AAS7 Change from baseline LS Mean (SE),"Week 8, ITT",−39.35 (4.28)
same,AAS7 Post-baseline Mean (SD),"Week 8, ITT",11.17 (12.56)
same,"Non-responder n (%), AAS7 = 0","Week 8, omalizumab-naïve",19 (55.9) n (%)
same,"OR (95% CI) for rilzabrutinib vs. placebo, AAS7 = 0","Week 8, omalizumab-naïve",0.964
same,"RRD (%) for rilzabrutinib vs. placebo (95% CI), AAS7 = 0","Week 8, omalizumab-naïve",−0.9 %
same,"Responder n (%), AAS7 = 0","Week 8, omalizumab-naïve",15 (44.1) n (%)
same,AAS7 % Change from baseline LS Mean (SE),"Week 8, omalizumab-naïve",−73.05 (12.72) %
same,"AAS7 = 0, Non-responder n (%)","Week 8, omalizumab-naïve",17 (73.9) n (%)
